Assay results from the supplement of paper PMC10307832.

Tests used:
Test in all cases: relative viability (nuclei count vs DMSO), 5 days (fraction); higher = more cells survive
BGJ398 + AZD7762 = compound: CCN1CCN(c2ccc(Nc3cc(N(C)C(=O)Nc4c(Cl)c(OC)cc(OC)c4Cl)ncn3)cc2)CC1 [BGJ398] + NC(=O)Nc1cc(-c2cccc(F)c2)sc1C(=O)N[C@H]1CCCNC1 [AZD7762] (partner 0.2 µM)
In short: (§1)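 Cells from lung cancer lines were seeded into 1536-well plates and, one day later, dosed by pin tool. Treatments were either a single drug or a fixed dose of an anchor drug with five library-drug doses (not always all listed) in √10 steps. After 5 days, nuclei were stained in a one-step fixation (final 0.05% Triton X-100, 1% formaldehyde, 1 ug/ml Hoechst) and counted on 4× images, and relative viability is the treated-to-vehicle nuclei ratio, as the median of duplicate plates.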

[1] = compound: C1=CC2=NC=CN=C2C=C1/C=C/3\C(=O)NC(=O)S3 + CS(=O)(=O)N1CCN(Cc2cc3nc(-c4cccc5[nH]ncc45)nc(N4CCOCC4)c3s2)CC1 [Pictilisib] (partner 1 µM)
In short: as §1

[2] = compound: C1=CC2=NC=CN=C2C=C1/C=C/3\C(=O)NC(=O)S3 + Nc1ncn([C@H]2C[C@H](O)[C@@H](CO)O2)c(=O)n1 [Decitabine] (partner 2 µM)
In short: as §1

BGJ398 + Trametinib = compound: CCN1CCN(c2ccc(Nc3cc(N(C)C(=O)Nc4c(Cl)c(OC)cc(OC)c4Cl)ncn3)cc2)CC1 [BGJ398] + CC(=O)Nc1cccc(-n2c(=O)n(C3CC3)c(=O)c3c(Nc4ccc(I)cc4F)n(C)c(=O)c(C)c32)c1 [Trametinib] (partner 0.02 µM)
In short: as §1

Cell Line	relative viability (BGJ398 + AZD7762; first compound 0.01 µM)	relative viability (BGJ398 + AZD7762; first compound 0.03162 µM)	relative viability (BGJ398 + AZD7762; first compound 0.1 µM)	relative viability (BGJ398 + AZD7762; first compound 0.3162 µM)	relative viability (BGJ398 + AZD7762; first compound 1 µM)	relative viability ([1]; first compound 0.02 µM)	relative viability ([1]; first compound 0.06325 µM)	relative viability ([1]; first compound 0.2 µM)	relative viability ([1]; first compound 0.6325 µM)	relative viability ([1]; first compound 2 µM)	relative viability ([2]; first compound 0.02 µM)	relative viability ([2]; first compound 0.06325 µM)	relative viability ([2]; first compound 0.2 µM)	relative viability ([2]; first compound 0.6325 µM)	relative viability ([2]; first compound 2 µM)	relative viability (BGJ398 + Trametinib; first compound 0.01 µM)	relative viability (BGJ398 + Trametinib; first compound 0.03162 µM)	relative viability (BGJ398 + Trametinib; first compound 0.1 µM)	relative viability (BGJ398 + Trametinib; first compound 0.3162 µM)	relative viability (BGJ398 + Trametinib; first compound 1 µM)
LCLC-103H	0.796	0.86	0.804	0.658	0.656	0.61	0.768	0.706	0.539	0.531	0.71	0.798	0.707	0.747	0.709	0.703	0.623	0.65	0.642	0.535
LK-2	0.296	0.329	0.16	0.165	0.13	0.678	0.587	0.596	0.497	0.392	0.285	0.291	0.452	0.279	0.154	0.788	0.726	0.561	0.32	0.268
LOU-NH91	0.753	0.779	0.752	0.664	0.762	0.528	0.535	0.535	0.498	0.484	0.797	0.849	0.83	0.782	0.756	0.718	0.689	0.779	0.705	0.759
LU99A	0.429	0.336	0.4	0.234	0.273	0.33	0.365	0.317	0.341	0.245	0.932	0.828	0.884	0.751	0.725	0.461	0.487	0.498	0.401	0.401
LXF-289	1.02	1.03	1.06	0.978	1.06	0.723	0.843	0.801	0.771	0.635	0.357	0.374	0.334	0.379	0.389	0.567	0.649	0.672	0.563	0.593
NCI-H23	0.228	0.267	0.252	0.232	0.225	0.396	0.688	0.557	0.517	0.504	0.329	0.357	0.322	0.286	0.3	0.348	0.438	0.441	0.377	0.322
NCI-H322M	0.689	0.46	0.577	0.607	0.601	0.477	0.476	0.586	0.518	0.434	0.693	0.776	0.798	0.665	0.692	0.587	0.465	0.511	0.435	0.507
NCI-H358		0.473	0.591	0.507	0.725	0.357	0.344	0.402	0.38	0.258	0.227	0.22	0.221	0.268	0.182	0.137	0.127	0.134	0.126	0.148
NCI-H441		1.07	1.25	0.961	1.56	0.453	0.48	0.447	0.573	0.477	0.246	0.284	0.251	0.23	0.287		0.484	0.52	0.429	0.436
NCI-H460	0.73	0.655	0.593	0.53	0.621	0.376	0.281	0.338	0.324	0.199	0.524	0.389	0.515	0.459	0.534	0.0671	0.131	0.209	0.13	0.0628
NCI-H596	1.1	0.993	0.893	0.911	0.799	0.465	0.384	0.394	0.419	0.377	0.886	0.954	1.09	0.972	1.72	0.719	0.631	0.773	0.709	0.62
NCI-H647	0.642	0.489	0.497	0.326	0.373	0.546	0.483	0.624	0.368	0.271	0.339	0.458	0.382	0.432	0.488	0.374	0.573	0.526	0.447	0.345
NCI-H650	0.877	0.934	0.941	0.875	1.04	0.816	0.829	0.917	0.868	0.783	0.32	0.287	0.356	0.319	0.342	0.927	1.04	1.08	0.963	0.959
NCI-H727	0.996	0.693	0.574	0.468	0.486	0.432	0.394	0.367	0.328	0.198	0.891	0.848	0.957	0.915	0.445	0.417	0.412	0.381	0.389	0.385
NCI-H838	0.861	0.915	1.04	0.782	0.756	0.395	0.446	0.429	0.369	0.322	0.429	0.46	0.415	0.481	0.39	0.41	0.537	0.51	0.403	0.382
NCI-H1355	0.697	0.818	0.748	0.677	0.713	0.274	0.411	0.499	0.459	0.364	0.348	0.353	0.357	0.367	0.33	0.374	0.44	0.452	0.382	0.329

Cell Line	relative viability (BGJ398 + AZD7762; first compound 0.01 µM)	relative viability (BGJ398 + AZD7762; first compound 0.03162 µM)	relative viability (BGJ398 + AZD7762; first compound 0.1 µM)	relative viability (BGJ398 + AZD7762; first compound 0.3162 µM)	relative viability (BGJ398 + AZD7762; first compound 1 µM)	relative viability ([1]; first compound 0.02 µM)	relative viability ([1]; first compound 0.06325 µM)	relative viability ([1]; first compound 0.2 µM)	relative viability ([1]; first compound 0.6325 µM)	relative viability ([1]; first compound 2 µM)	relative viability ([2]; first compound 0.02 µM)	relative viability ([2]; first compound 0.06325 µM)	relative viability ([2]; first compound 0.2 µM)	relative viability ([2]; first compound 0.6325 µM)	relative viability ([2]; first compound 2 µM)	relative viability (BGJ398 + Trametinib; first compound 0.01 µM)	relative viability (BGJ398 + Trametinib; first compound 0.03162 µM)	relative viability (BGJ398 + Trametinib; first compound 0.1 µM)	relative viability (BGJ398 + Trametinib; first compound 0.3162 µM)	relative viability (BGJ398 + Trametinib; first compound 1 µM)
NCI-H1395	0.372	0.366	0.355	0.352	0.352	0.669	0.596	0.786	0.564	0.512	0.637	0.693	0.74	0.703	0.651	0.986	0.963	0.666	0.555	0.587
NCI-H1437	1.13	1.23	1.14	1.17	1.19	0.441	0.482	0.434	0.347	0.317	0.548	0.546	0.588	0.536	0.617	0.59	0.508	0.559	0.519	0.393
NCI-H1651	0.465	0.442	0.478	0.374	0.471	0.547	0.574	0.598	0.462	0.472	0.56	0.424	0.651	0.576	0.552	0.804	0.876	0.922	0.806	0.841
NCI-H1666	0.95	0.784	0.866	0.703	0.728	0.286	0.39	0.403	0.534	0.327	0.717	0.709	0.775	0.691	0.672	0.735	0.908	0.965	0.911	0.75
NCI-H1734	0.504	0.56	0.538	0.554	0.624	0.426		0.509	0.421	0.274	0.483		0.517	0.501	0.489	0.591	0.657	0.54	0.42	0.381
NCI-H1755	0.487	0.496	0.384	0.339	0.399	0.423	0.403	0.515	0.449	0.426	0.74	0.628	0.729	0.689	0.685	0.723	0.751	0.725	0.638	0.554
NCI-H1792	0.678	0.595	0.784	0.646	0.718	0.26	0.16	0.341	0.214	0.296	0.535		0.6	0.513	0.374	0.359	0.361	0.342	0.215	0.17
NCI-H1793	0.466	0.406	0.473	0.434	0.419	0.344	0.395	0.328	0.294	0.263	0.417	0.391	0.559	0.447	0.552	0.442	0.311	0.273	0.305	0.312
NCI-H1915	0.696	0.665	0.691	0.576	0.724	0.956	1.15	1.12	0.774	0.97	0.238	0.281	0.28	0.252	0.281	0.282	0.31	0.29	0.221	0.17
NCI-H1944	0.561	0.536	0.484	0.439	0.516	0.284	0.349	0.367	0.319	0.297	0.364	0.386	0.432	0.423	0.462	0.371	0.452	0.403	0.387	0.382
NCI-H1975	0.767	0.711	0.78	0.666	0.606	0.268	0.298	0.314	0.246	0.226	0.362	0.359	0.436	0.37	0.359	0.324	0.515	0.391	0.31	0.25
NCI-H1993	0.953	0.85	0.593	0.94	0.803	0.811	0.881	0.757	0.878	0.592	0.527	0.594	0.737	0.557	0.507	0.447	0.524	0.596	0.441	0.595
NCI-H2085	1.04	0.974	0.948	0.884	0.963	0.417	0.394	0.533	0.455	0.486	0.495	0.457	0.578	0.539	0.566	0.498	0.525	0.505	0.705	0.502
NCI-H2087	1.13	1.23	1.23	1.45	1.5	0.77	1.11	0.913	0.798	0.995	0.355	0.255	0.256	0.253	0.267	0.142	0.22	0.188	0.197	0.189
NCI-H2126	1.08	1.05	1.05	1.06	1.03	0.448	0.56	0.498	0.474	0.411	0.567	0.647	0.567	0.527	0.481	0.609	0.531	0.615	0.629	0.567
NCI-H2170	0.906	0.843	1.01	0.861	0.912	0.296	0.273	0.369	0.28	0.258	0.467	0.47	0.451	0.414	0.46	0.941	0.937	1.02	0.91	0.866
